Experimental data as given in paper PMC10141580, “Cyclic Dichalcogenides Extend the Reach of Bioreductive Prodrugs to Harness Thiol/Disulfide Oxidoreductases: Applications to seco-Duocarmycins Targeting the Thioredoxin System” (ACS Central Science, 2023).
Like-named read-outs stand apart in the source and are kept apart here.

System: panel of 140 standard cancer cell lines
Assay: ProliFiler-140 cancer cell line screen (CellTiterGlo, 72 h)
Assay type: cell-based
Experimental: Incubations were performed for 72 h before automated viability readout with CellTiterGlo (Figure 8).
End of Figure S11 (part 5 of 5): ProliFiler-140 cancer cell line screening for cytotoxicity of the prodrugs.
8-data-point dose response curves from CellTiter-Glo® viability readout.
ProliFiler-140 cell line panel part V

`COc1cccc2c1C(=O)c1c(O)c3c(c(O)c1C2=O)C[C@@](O)(C(=O)CO)C[C@@H]3O[C@H]1C[C@H](N)[C@H](O)[C@H](C)O1` [doxorubicin, reference compound] gave an IC50 (Homo sapiens, NCI-H2009, NCI-H2009 (Lung), read-out: IC50 [M] (ProliFiler-140)) of 1.41e-07 M, an IC50 (Homo sapiens, NCI-H2228, H2228 (Lung), read-out: IC50 [M] (ProliFiler-140)) of 5.73e-08 M and an IC50 (Homo sapiens, NCI-H2286, NCI-H2286 (Lung), read-out: IC50 [M] (ProliFiler-140)) of 4.4e-08 M. For the same compound, the IC50 (Homo sapiens, NCI-N87, NCI-N87 (Stomach), read-out: IC50 [M] (ProliFiler-140)) was 2e-07 M, the IC50 (Homo sapiens, OCI-AML-3, OCI-AML3 (Blood), read-out: IC50 [M] (ProliFiler-140)) was 7.6e-08 M and the IC50 (Homo sapiens, OCI-AML-5, OCI-AML5 (Blood), read-out: IC50 [M] (ProliFiler-140)) was 3.1e-08 M. For the same compound, the IC50 (Homo sapiens, OCI-LY19, OCI-LY19 (Blood), read-out: IC50 [M] (ProliFiler-140)) was 5.55e-09 M, the IC50 (Homo sapiens, OPM-2, OPM-2 (Blood), read-out: IC50 [M] (ProliFiler-140)) was 2.43e-07 M and the IC50 (Homo sapiens, OVCAR-3, OVCAR-3 (Ovary), read-out: IC50 [M] (ProliFiler-140)) was 3.7e-07 M. For the same compound, the IC50 (Homo sapiens, OVCAR-3, OVCAR-3, read-out: IC50) was 3.7e-07 M, the IC50 (Homo sapiens, P31-FUJ, P31/FUJ (Blood), read-out: IC50 [M] (ProliFiler-140)) was 1e-07 M and the IC50 (Homo sapiens, PANC-1, PANC-1 (Pancreas), read-out: IC50 [M] (ProliFiler-140)) was 8e-07 M. For the same compound, the IC50 (Homo sapiens, RL95-2, RL95-2 (Endometrium), read-out: IC50 [M] (ProliFiler-140)) was 1.97e-07 M, the IC50 (Homo sapiens, RPMI-8226, RPMI 8226 (Blood), read-out: IC50 [M] (ProliFiler-140)) was 8.84e-08 M and the IC50 (Homo sapiens, SAOS-2, Saos-2 EC (Bone), read-out: IC50 [M] (ProliFiler-140)) was 2.02e-07 M. It also gave an IC50 (Homo sapiens, SCLC-21H, SCLC-21H (Lung), read-out: IC50 [M] (ProliFiler-140)) of 2.91e-07 M, an IC50 (Homo sapiens, SJSA-1, SJSA-1 (Bone), read-out: IC50 [M] (ProliFiler-140)) of 4.01e-07 M and an IC50 (Homo sapiens, SK-BR-3, SK-BR-3 (Breast), read-out: IC50 [M] (ProliFiler-140)) of 1.3e-07 M. For the same compound, the IC50 (Homo sapiens, SK-ES1, SK-ES-1 (Bone), read-out: IC50 [M] (ProliFiler-140)) was 2.61e-08 M, the IC50 (Homo sapiens, SK-LU-1, SK-LU-1 (Lung), read-out: IC50 [M] (ProliFiler-140)) was 2.7e-07 M and the IC50 (Homo sapiens, SK-MEL3, SK-MEL-3 (Skin), read-out: IC50 [M] (ProliFiler-140)) was 5.1e-07 M. The IC50 (Homo sapiens, SK-N-FI, SK-N-FI (Brain), read-out: IC50 [M] (ProliFiler-140)) was 1.36e-06 M, the IC50 (Homo sapiens, SK-N-MC, SK-N-MC (Brain), read-out: IC50 [M] (ProliFiler-140)) was 1.5e-08 M and the IC50 (Homo sapiens, SK-N-SH, SK-N-SH (Brain), read-out: IC50 [M] (ProliFiler-140)) was 9.8e-08 M. The IC50 (Homo sapiens, SK-OV-3, SK-OV3 (Ovary), read-out: IC50 [M] (ProliFiler-140)) was 1.76e-07 M, the IC50 (Homo sapiens, SNU1, SNU-1 (Stomach), read-out: IC50 [M] (ProliFiler-140)) was 5.9e-08 M and the IC50 (Homo sapiens, SNU-16, SNU-16 (Stomach), read-out: IC50 [M] (ProliFiler-140)) was 1.37e-07 M. The IC50 (Homo sapiens, SU-DHL-5, SU-DHL-5 (Blood), read-out: IC50 [M] (ProliFiler-140)) was 9.1e-09 M, the IC50 (Homo sapiens, SW480, SW480 (Colon), read-out: IC50 [M] (ProliFiler-140)) was 1.2e-07 M and the IC50 (Homo sapiens, SW948, SW948 (Colon), read-out: IC50 [M] (ProliFiler-140)) was 3.46e-07 M. The IC50 (Homo sapiens, SW1783, SW-1783 (Brain), read-out: IC50 [M] (ProliFiler-140)) was 2.99e-07 M, the IC50 (Homo sapiens, SW-620, SW620 (Colon), read-out: IC50 [M] (ProliFiler-140)) was 3.06e-07 M and the IC50 (Homo sapiens, SiHa, SiHa (Ovary), read-out: IC50 [M] (ProliFiler-140)) was 1.47e-07 M. For the same compound, the IC50 (Homo sapiens, T47D, T-47D (Breast), read-out: IC50 [M] (ProliFiler-140)) was 4.3e-07 M, the IC50 (Homo sapiens, T98G, T98G (Brain), read-out: IC50 [M] (ProliFiler-140)) was 1.17e-06 M and the IC50 (Homo sapiens, U2OS, U2OS (Bone), read-out: IC50 [M] (ProliFiler-140)) was 1.14e-07 M. For the same compound, the IC50 (Homo sapiens, U-87 MG, U87MG (Brain), read-out: IC50 [M] (ProliFiler-140)) was 1.6e-07 M, the IC50 (Homo sapiens, U-118-MG, U118MG (Brain), read-out: IC50 [M] (ProliFiler-140)) was 2.57e-07 M and the IC50 (Homo sapiens, U-251, U251MG (Brain), read-out: IC50 [M] (ProliFiler-140)) was 7.8e-07 M. It also gave an IC50 (Homo sapiens, U-266, U-266 (Blood), read-out: IC50 [M] (ProliFiler-140)) of 1.11e-07 M, an IC50 (Homo sapiens, U-937, U-937 (Blood), read-out: IC50 [M] (ProliFiler-140)) of 2.57e-08 M and an IC50 (Homo sapiens, ZR-75-1, ZR-75-1 (Breast), read-out: IC50 [M] (ProliFiler-140)) of 1.35e-06 M. For the same compound, the IC50 (Ishikawa (Endometrium), listed as Dox, read-out: IC50 [M] (ProliFiler-140)) was 7.74e-08 M, the IC50 (J82 (Bladder), read-out: IC50 [M] (ProliFiler-140)) was 7.98e-07 M and the IC50 (JIMT-1 (Breast), listed as Dox, read-out: IC50 [M] (ProliFiler-140)) was 1.29e-06 M. It also gave an IC50 (Jurkat (Blood), listed as Dox, read-out: IC50 [M] (ProliFiler-140)) of 4e-08 M, an IC50 (K562 (Blood), listed as Dox, read-out: IC50 [M] (ProliFiler-140)) of 4.42e-07 M and an IC50 (KG-1 (Blood), read-out: IC50 [M] (ProliFiler-140)) of 1.21e-06 M. For the same compound, the IC50 (KG-1 a (Blood), listed as Dox, read-out: IC50 [M] (ProliFiler-140)) was 4.9e-07 M, the IC50 (Kato III (Stomach), listed as Dox, read-out: IC50 [M] (ProliFiler-140)) was 8.99e-07 M and the IC50 (LN229 (Brain), listed as Dox, read-out: IC50 [M] (ProliFiler-140)) was 2.2e-07 M. For the same compound, the IC50 (LOU-NH91 (Lung), listed as Dox, read-out: IC50 [M] (ProliFiler-140)) was 2.89e-07 M, the IC50 (LOU-NH91, LOU-NH91 (Lung), read-out: IC50 [M] (ProliFiler-140)) was 2.9e-07 M and the IC50 (LP-1 (Blood), listed as Dox, read-out: IC50 [M] (ProliFiler-140)) was 6.62e-07 M. For the same compound, the IC50 (LP-1 (Blood), read-out: IC50 [M] (ProliFiler-140)) was 6.6e-07 M, the IC50 (LnCap (Prostate), listed as Dox, read-out: IC50 [M] (ProliFiler-140)) was 1.92e-07 M and the IC50 (M07e (Blood), listed as Dox, read-out: IC50 [M] (ProliFiler-140)) was 4.6e-08 M. The IC50 (M-07e, M07e (Blood), read-out: IC50 [M] (ProliFiler-140)) was 4.63e-08 M.
